Publication PMC10184313, “Inhibition of Thiamine Diphosphate-Dependent Enzymes by Triazole-Based Thiamine Analogues” (ACS Medicinal Chemistry Letters, 2023)
Like-named read-outs stand apart in the source and are kept apart here.

Experiments:
E. coli OGDHc E1 = target: T1, E. coli OGDHc E1 (Escherichia coli, UniProt P0AFG3); assay: E. coli OGDHc E1 inhibitory activity assay (DCPIP reduction); format: biochemical; conditions: for IC50: [ThDP] 30 μM; for Ki: determined according to the KM for ThDP
T1 sequence (P0AFG3 1-933): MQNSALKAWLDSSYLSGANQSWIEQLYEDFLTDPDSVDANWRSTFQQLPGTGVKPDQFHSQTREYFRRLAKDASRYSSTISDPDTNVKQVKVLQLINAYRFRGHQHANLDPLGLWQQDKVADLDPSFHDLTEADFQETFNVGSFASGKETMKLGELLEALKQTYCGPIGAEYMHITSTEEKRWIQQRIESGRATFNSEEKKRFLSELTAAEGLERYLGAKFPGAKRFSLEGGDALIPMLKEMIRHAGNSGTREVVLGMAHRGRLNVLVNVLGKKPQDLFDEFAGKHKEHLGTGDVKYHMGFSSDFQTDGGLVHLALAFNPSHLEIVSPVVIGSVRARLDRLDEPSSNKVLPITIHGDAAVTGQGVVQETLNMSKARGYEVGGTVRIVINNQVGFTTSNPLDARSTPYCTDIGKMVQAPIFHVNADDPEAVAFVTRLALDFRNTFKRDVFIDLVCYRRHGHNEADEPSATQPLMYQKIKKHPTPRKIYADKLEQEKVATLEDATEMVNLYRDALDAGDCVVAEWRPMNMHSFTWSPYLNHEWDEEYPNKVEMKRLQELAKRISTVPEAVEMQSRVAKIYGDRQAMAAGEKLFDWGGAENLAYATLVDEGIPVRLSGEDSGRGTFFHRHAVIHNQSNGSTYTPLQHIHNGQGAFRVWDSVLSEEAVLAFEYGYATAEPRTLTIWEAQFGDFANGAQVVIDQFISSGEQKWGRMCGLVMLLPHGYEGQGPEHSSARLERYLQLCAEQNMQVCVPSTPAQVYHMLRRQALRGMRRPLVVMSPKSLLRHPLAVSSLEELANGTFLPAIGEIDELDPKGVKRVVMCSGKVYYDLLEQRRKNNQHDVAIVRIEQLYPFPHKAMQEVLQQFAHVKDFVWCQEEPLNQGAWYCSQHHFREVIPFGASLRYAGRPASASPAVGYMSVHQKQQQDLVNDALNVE
Description: E. coli OGDHc E1 inhibitory activity assay. E. coli OGDHc E1 was from our previous work 5 and had been donated by R. Frank. Its activity was determined by monitoring DCPIP reduction at 600 nm using a microplate reader (CLARIOstar) and conducted as described 1,2 with some modifications. The percentage inhibition of compounds against E. coli OGDHc E1 was assayed at a final concentration of 250 µM. The reaction buffer (50 mM KH 2PO4 and 2 mM MgCl 2, pH 7) contained 50 µM ThDP (or 125 µM in the competition assay), 0.5 mM DCPIP, and 6.7 mg/ml E. coli OGDHc E1. The reaction mixture was preincubated at 37 °C for 60 min, then reaction was initiated by adding α-ketoglutarate to a final concentration of 10 mM. To determine the IC 50, ThDP concentration was lowered to 30 µM, and inhibitor concentration was varied (2-1000 µM). Specific activity was calculated using the molar […]
for the PDHc E1 assay. […] 5 […]

P. falciparum strain 3D7 = assay: Anti-plasmodial activity assay (SYBR-Safe); format: cell-based, Plasmodium falciparum
Description: Next the effects of the thiamine/ThDP analogues on in vitro proliferation of the 3D7 strain of P. falciparum were determined. […] Parasite proliferation was measured by SYBR-Safe assay of parasite DNA.[11],[15]
(§1) Cell-based assays (Results)
(§2) Anti-plasmodial activity assay. This study used human malaria parasite P. falciparum strain 3D7 (chloroquine-sensitive) and the same strain expressing an extra copy of TPK with a GFP-tag ( PfTPK-GFP) generated as previously described. 9 The intraerythrocytic stage of the parasites were maintained essentially as previously described. 10 Compounds were tested at concentrations up to a highest final […]
(§3) were prepared in dimethyl sulfoxide (DMSO) followed by dilution in RPMI 1640 medium in the absence of thiamine or in the presence of 2.97 µM (or 297 µM) thiamine. The final concentration of DMSO that the parasites were exposed to never exceeded 0.05%. Two-fold serial dilutions were then performed, with each concentration tested in triplicate. The assay was performed as described 11 with some modifications. Experiments were initiated with parasites in the ring-stage, a parasitemia level of 0.5% and a haematocrit of 2%. Chloroquine (0.5 µM) was used as the positive control ( i.e. complete inhibition of parasite proliferation), and parasites maintained in the absence of any inhibitor represented 100% parasite proliferation. The final volume in each well was 200 µL. Plates were incubated at 37 °C, under an atmosphere of 96% nitrogen, 3% carbon dioxide and 1% oxygen. Parasite proliferation was measured by performing SYBR-Safe assay. 12 The concentration at which the compound suppresses […]
Excel and analysed by non-linear regression plot using GraphPad Prism. The data were averaged from three independent experiments. […]

in vitro = format: cell-based, human; conditions: human
Description: as §1, §2, §3
(§4) Excel and analysed by non-linear regression plot using GraphPad Prism. The data were averaged from three independent experiments.
(§5) Cytotoxicity assay. This study used HFF cells (human foreskin fibroblasts) as described 13 with some modifications. The HFF cells were seeded in 96-well plates at a density of about 13 x 10^4 cells/mL.
(§6) Plates were incubated at 37 °C in a humidified 5% carbon dioxide incubator for 96 h. A sample of the supernatant (150 µL) was then carefully aspirated from each well and discarded. The plates were then stored at -80 °C. SYBR- Safe assay was used. The plates were thawed, SYBR-Safe lysis solution (150 µL) was added to each well and mixed via pipetting to ensure the HFF cells were detached from the plate and lysed. The plates were then processed as described for the anti-plasmodial assay.

HFF cells = assay: in vitro; format: cell-based, human; conditions: IC50 (thiamine-free) vs HFF cytotoxicity
Description: as §1, §2, §3, §4, §5, §6

[1] = system: P. falciparum 3D7 expressing PfTPK-GFP; assay: Anti-plasmodial activity, 3D7 expressing PfTPK-GFP; format: cell-based; conditions: Plasmodium falciparum, 3D7, read-out: IC50 anti-plasmodial activity, PfTPK-GFP
Description: as §1, §2
as §3, with “Plates were incubated at 37 °C, under an atmosphere of 96% nitrogen, 3% carbon dioxide and 1% oxygen.” left out, “assay.” for “assay. 12 The concentration at which the compound suppresses”
Excel and analysed by non-linear regression plot using GraphPad Prism. […]

[2] = [Compound] = 250 μM, [ThDP] = 50 μM
[3] = increased ThDP: [Compound] = 250 μM, [ThDP] = 125 μM
[4] = Plasmodium falciparum, 3D7, 3D7, [Thiamine] = 2.97 μM, read-out: IC50 of Suppression of P. falciparum proliferation, [Thiamine] = 2.97 μM
[5] = Plasmodium falciparum, 3D7, 3D7, [Thiamine] = 297 μM, read-out: IC50 of Suppression of P. falciparum proliferation, [Thiamine] = 297 μM
[6] = Plasmodium falciparum, 3D7, 3D7, thiamine-free medium, read-out: IC50 of Suppression of P. falciparum proliferation, Thiamine-free

SMILES	inhibition at 250 µM (E. coli OGDHc E1; [2]) [%]	inhibition at 250 µM (E. coli OGDHc E1; [3]) [%]	further results
COc1ccccc1C(=O)NCCCCc1cn(Cc2cnc(C)nc2N)nn1 [Compound 22c]	35 ± 3		
Cc1ncc(Cn2cc(CCCCC(=O)Nc3ccccc3N)nn2)c(N)n1 [Compound 26c]	30 ± 2		
Cc1ncc(Cn2cc(CCCn3cc(-c4ccccc4)nn3)nn2)c(N)n1 [Compound 15b]	< 20	< 20	
Cc1ncc(Cn2cc(CCC(=O)Nc3ccccc3N)nn2)c(N)n1 [Compound 26a]	63 ± 2		
COc1cccc(C(=O)NCCCc2cn(Cc3cnc(C)nc3N)nn2)c1 [Compound 21b]	58 ± 5		
COc1ccccc1C(=O)NCCCc1cn(Cc2cnc(C)nc2N)nn1 [Compound 22b]	56 ± 3		
Cc1ncc(Cn2cc(CCO)nn2)c(N)n1 [Compound 9a]	57 ± 4		
COc1cccc(C(=O)NCCCCc2cn(Cc3cnc(C)nc3N)nn2)c1 [Compound 21c]	25 ± 3		
Cc1ncc(Cn2cc(CCOC(=O)c3cccc(-c4noc(C(F)(F)F)n4)c3)nn2)c(N)n1 [Compound 13a]	< 20		
Cc1ncc(Cn2cc(CCCn3cc(-c4ccc(F)cc4)nn3)nn2)c(N)n1 [Compound 16b]	< 20	< 20	IC50 (P. falciparum strain 3D7; [4]): > 200 µM; IC50 (P. falciparum strain 3D7; [5]): > 200 µM; IC50 (P. falciparum strain 3D7; [6]): > 200 µM; IC50 at 96 h (in vitro): > 200 µM
Cc1ncc(Cn2cc(CCCC(=O)Nc3ccccc3N)nn2)c(N)n1 [Compound 26b]	52 ± 2		
Cc1ncc(Cn2cc(CCCC(=O)NO)nn2)c(N)n1 [Compound 24b]	> 90	78 ± 3	IC50 (E. coli OGDHc E1): 20 ± 2 µM; Ki (E. coli OGDHc E1): 2.02 µM; fold more potent than 17c at inhibiting proliferation of the parasites (P. falciparum strain 3D7): ~50 fold; IC50 (P. falciparum strain 3D7; 3D7, thiamine-free medium, read-out: IC50 of Suppression of P. falciparum proliferation, Thiamine-free): 0.9 ± 0.1 µM; IC50 (P. falciparum strain 3D7; [4]): 1.3 ± 0.2 µM; IC50 (P. falciparum strain 3D7; [5]): 1.4 ± 0.4 µM; IC50 (P. falciparum strain 3D7; [6]): 0.9 to 3 µM; fold more active than 24c (anti-plasmodial) (P. falciparum strain 3D7; thiamine-free culture medium): 3 fold; IC50 at 96 h (in vitro): 15 ± 3 µM; Selectivity Index (HFF cells): 16.7; IC50 [1]: 2 ± 0.6 µM
Cc1ncc(Cn2cc(CCCCO)nn2)c(N)n1 [Compound 9c]	51 ± 2		
Cc1ncc(Cn2cc(CCCCn3cc(-c4ccccc4)nn3)nn2)c(N)n1 [Compound 15c]	< 20	< 20	
Cc1ncc(Cn2cc(CCNC(=O)c3cccc(-c4noc(C(F)(F)F)n4)c3)nn2)c(N)n1 [Compound 19a]	< 20		
COc1ccc(-c2cn(CCCc3cn(Cc4cnc(C)nc4N)nn3)nn2)cc1 [Compound 17b]	< 20	< 20	IC50 (P. falciparum strain 3D7; [4]): 78 ± 8 µM; IC50 (P. falciparum strain 3D7; [5]): 82 ± 11 µM; IC50 (P. falciparum strain 3D7; [6]): 51 ± 3 µM; IC50 at 96 h (in vitro): 90 ± 5 µM; Selectivity Index (HFF cells): 1.8

SMILES	inhibition at 250 µM (E. coli OGDHc E1; [2]) [%]	inhibition at 250 µM (E. coli OGDHc E1; [3]) [%]	further results
Cc1ncc(C[n+]2csc(CCO[P@@](=O)(O)OP(=O)(O)O)c2C)c(O)n1 [OxThDP 7b, oxythiamine diphosphate, reference compound]	62 ± 4	41 ± 4	
Cc1ncc(Cn2cc(CCCNS(=O)(=O)C(F)(F)F)nn2)c(N)n1 [Compound 18b]	42 ± 3		
Cc1ncc(Cn2cc(CCn3cc(-c4ccccc4)nn3)nn2)c(N)n1 [Compound 15a]	23 ± 3	< 20	
Cc1ncc(Cn2cc(CCCCNS(=O)(=O)C(F)(F)F)nn2)c(N)n1 [Compound 18c]	58 ± 4		
COc1ccc(-c2cn(CCc3cn(Cc4cnc(C)nc4N)nn3)nn2)cc1 [Compound 17a]	21 ± 3	< 20	IC50 (P. falciparum strain 3D7; [4]): 156 ± 13 µM; IC50 (P. falciparum strain 3D7; [5]): 169 ± 11 µM; IC50 (P. falciparum strain 3D7; [6]): 129 ± 9 µM; IC50 at 96 h (in vitro): > 200 µM
Cc1ncc(Cn2cc(CCn3cc(-c4ccc(F)cc4)nn3)nn2)c(N)n1 [Compound 16a]	25 ± 4	< 20	IC50 (P. falciparum strain 3D7; [4]): > 200 µM; IC50 (P. falciparum strain 3D7; [5]): > 200 µM; IC50 (P. falciparum strain 3D7; [6]): > 200 µM
Cc1ncc(Cn2cc(CCNC(=O)c3cccc(C#N)c3)nn2)c(N)n1 [Compound 20a]	< 20		
Cc1ncc(Cn2cc(CCNS(=O)(=O)C(F)(F)F)nn2)c(N)n1 [Compound 18a]	48 ± 2		
COc1cccc(C(=O)NCCc2cn(Cc3cnc(C)nc3N)nn2)c1 [Compound 21a]	63 ± 3		
Cc1ncc(Cn2cc(CCOC(=O)c3cccc(C#N)c3)nn2)c(N)n1 [Compound 14a]	< 20		
Cc1ncc(Cn2cc(CCCO)nn2)c(N)n1 [Compound 9b]	50 ± 3		
COc1ccc(-c2cn(CCCCc3cn(Cc4cnc(C)nc4N)nn3)nn2)cc1 [Compound 17c]	< 20	< 20	IC50 (P. falciparum strain 3D7; [4]): 62 ± 7 µM; IC50 (P. falciparum strain 3D7; [5]): 69 ± 9 µM; IC50 (P. falciparum strain 3D7; [6]): 44 ± 2 µM; IC50 at 96 h (in vitro): 46 ± 7 µM; Selectivity Index (HFF cells): 1.1; IC50 [1]: 44 ± 9 µM
Cc1ncc(Cn2cc(CCCCC(=O)NO)nn2)c(N)n1 [Compound 24c]	> 90	82 ± 2	IC50 (E. coli OGDHc E1): 15 ± 3 µM; Ki (E. coli OGDHc E1): 1.46 µM; IC50 (P. falciparum strain 3D7; [4]): 3.8 ± 2 µM; IC50 (P. falciparum strain 3D7; [5]): 4 ± 1.8 µM; IC50 at 96 h (in vitro): 44 ± 4 µM; Selectivity Index (HFF cells): 14.7
Cc1ncc(Cn2cc(CCC(=O)NO)nn2)c(N)n1 [Compound 24a]	73 ± 2		
Cc1ncc(Cn2cc(CCCCn3cc(-c4ccc(F)cc4)nn3)nn2)c(N)n1 [Compound 16c]	< 20	< 20	IC50 (P. falciparum strain 3D7; [4]): 70 ± 8 µM; IC50 (P. falciparum strain 3D7; [5]): 89 ± 19 µM; IC50 (P. falciparum strain 3D7; [6]): 67 ± 5 µM; IC50 at 96 h (in vitro): 48 ± 5 µM; Selectivity Index (HFF cells): 0.7
COc1ccccc1C(=O)NCCc1cn(Cc2cnc(C)nc2N)nn1 [Compound 22a]	80 ± 4		
